The nature of this assay: Superoxide radical scavenging activity (alkaline DMSO / NBT method). The protocol: The scavenging activity towards the superoxide radical (O2^−) was measured as the inhibition of superoxide radical (O2^−) generation. The method was performed by using alkaline DMSO method. Potassium superoxide and dry DMSO were allowed to stand in contact for 24 h and the solution was filtered immediately before use. […] Ascorbic acid was used as standard. The experiment was repeated in triplicate and the percentage scavenging was calculated by using the formula:
Inhibition (%)=[(Control−Test)/Control]×100

The structures appear in SMILES notation.

Consider `Cc1c(C)c2c(c(C)c1O)CCC(C)(C(=O)O)O2` (centres unmarked) [TROLOX], for which the “scavenging of superoxide radical (O2−), concentration dependence” value is on record as “concentration dependant scavenging”. Moreover, the “scavenging potential of superoxide radical (O2−)” value (at 100 μM concentration) turned out to be 47.80%.

For the origin of these results see patent US20150283093A1, “NANOENCAPSULATION OF CURCUMINOID METABOLITES - PROCESS, COMPOSITION AND APPLICATIONS THEREOF” (priority 2014, published 2015).
